Measurements: PubChem BioAssay AID1963839 (Molecular Pharmacology Branch, DTP, NCI, 2024)

System: 817829-284-R-J1-PDC complex spheroid viability
Test: Anticancer human tumor 817829-284-R-J1-PDC patient-derived colon adenocarcinoma cell line growth inhibition [POLQ]
Details: for IC50: curve of first compound; for viability, T/C: stronger effect = lower value
Description: Multicellular complex tumor spheroid response to Polymerase (POL) inhibitors (novobiocin, ART-558, RP6685) in combination with a variety of drugs and investigational agents in selected tumor cell lines
The POL inhibitors (novobiocin, ART-558, and RP6685) were evaluated both individually and in combination with standard of care and investigational anticancer small molecules within a complex spheroid model of solid tumors. . Complex spheroids include a stromal component modeled by human endothelial cells (HUVEC) and fibroblasts modeled by human mesenchymal stem cells (MSCs). The concentration ranges selected for each drug and investigational agent were based upon clinically achievable concentrations if the clinical Cmax of the agent was known.
Compounds. The drugs and investigational agents: novobiocin (NSC847541), ART-558 (NSC835418), RP-6685 (NSC848927), peposertib (NSC802822), ceralasertib (NSC780249), elimusertib (NSC800525), camonsertib (NSC841442), AZD-1390 (NSC803789), olaparib (NSC753686), talazoparib (NSC767125), rucaparib (NSC756644), sotorasib (NSC818433), MRTX-1133 (NSC836407), SN-38 (NSC673596), topotecan (NSC609699), epotoside (NSC141540), doxorubicin (NSC123127), gemcitabine (NSC613327), 5-fluorouracil (NSC19893), paclitaxel (NSC125973), vemurafenib (NSC761431), MSA-2 (NSC828583), SN-011 (NSC837082), adavosertib (NSC754352), prexasertib (NSC758257), carboplatin (NSC241240) and oxaliplatin (NSC266046), were obtained from the National Cancer Institute (NCI) Developmental Therapeutics Program Chemical Repository (21). The FDA-approved anticancer drug set is available from the Developmental Therapeutics Program at https://dtp.cancer.gov/organization/dscb/obtaining/. […] The stock solutions were prepared in dimethyl sulfoxide (DMSO, Sigma-Aldrich, St. Louis, MO, cat. D2650), except for the platinum compounds which were prepared in saline (Quality Biological, Gaithersburg, MD, cat. 114-055-101), at 800-fold the tested concentration and stored at -70 degrees C prior to their use. All drugs and investigational agents were tested over a range starting from a high concentration at or near the clinical Cmax and decreasing in half-log increments. If the clinical Cmax for an agent had not been determined, the highest concentration tested was 10 microM, except for SN-38, which was tested at a high concentration of 1 microM.
Cell Culture. All cells were maintained in an incubator at 37 degrees C and 5% CO2 with 95% humidity. The PDC lines were cultured according to standard operating procedures established by the NCI PDMR (https://pdmr.cancer.gov). Table 3 of the manuscript, lists the cell lines along with the number of the three cell types plated to form the mct-spheroids and media for tumor cell growth. After thawing, all PDC lines, except 997537-175-T-J1-PDC and 415267-285-R-J2-PDC, were cultured in Matrigel-coated flasks prepared with a working solution of 1X Ham's F-12 nutrient mix, without supplementation (Thermo Fisher Scientific, cat. 11765054), 100 U/mL penicillin-streptomycin (Thermo Fisher Scientific, cat. 15140122), and 2.5% Matrigel (Corning Inc., Corning, NY, cat. 354248) for the first three passages. The two PDC lines 997537-175-T-J1-PDC and 415267-285-R-J2-PDC were cultured on uncoated flasks. The 857933-349-R-J2-PDC line was cultured in 6C/Colon 1B media containing advanced DMEM/F-12 (Thermo Fisher Scientific, cat. 12634028), 10 mM HEPES (Thermo Fisher Scientific, cat. 15630080), 1X GlutaMAX supplement (Thermo Fisher Scientific, cat. 35050061), 0.1 mg/mL primocin (InvivoGen, San Diego, CA, cat. ant-pm-2), 10% defined fetal bovine serum, heat inactivated (HyClone Laboratories Inc., Logan, UT, cat. SH30070.03HI), 50% L-WRN conditioned media (ATCC, cat. CRL-3276), 1.25 mM N-Acetyl-L-cysteine (Sigma-Aldrich, cat. A9165), 10 mM nicotinamide (Sigma-Aldrich, cat. N0636), 1X B-27 supplement (Thermo Fisher Scientific, cat. 17504044), 1X N-2 supplement (Thermo Fisher Scientific, cat. […]

[1] = second compound 0.0316 µM, first compound 0.0316 µM
[2] = second compound 0.0316 µM, first compound 0.1 µM
[3] = second compound 0.0316 µM, first compound 0.316 µM
[4] = second compound 0.0316 µM, first compound 1 µM
[5] = second compound 0.0316 µM, first compound 3.16 µM
[6] = second compound 0.0316 µM, first compound 10 µM
[7] = second compound 0.1 µM, first compound 0.0316 µM
[8] = second compound 0.1 µM, first compound 0.1 µM
[9] = second compound 0.1 µM, first compound 0.316 µM
[10] = second compound 0.1 µM, first compound 1 µM
[11] = second compound 0.1 µM, first compound 3.16 µM
[12] = second compound 0.1 µM, first compound 10 µM
[13] = second compound 0.316 µM, first compound 0.0316 µM
[14] = second compound 0.316 µM, first compound 0.1 µM
[15] = second compound 0.316 µM, first compound 0.316 µM
[16] = second compound 0.316 µM, first compound 1 µM
[17] = second compound 0.316 µM, first compound 3.16 µM
[18] = second compound 0.316 µM, first compound 10 µM
[19] = second compound 1 µM, first compound 0.0316 µM
[20] = second compound 1 µM, first compound 0.1 µM
[21] = second compound 1 µM, first compound 0.316 µM
[22] = second compound 1 µM, first compound 1 µM
[23] = second compound 1 µM, first compound 3.16 µM
[24] = second compound 1 µM, first compound 10 µM
[25] = second compound 3.16 µM, first compound 0.0316 µM
[26] = second compound 3.16 µM, first compound 0.1 µM
[27] = second compound 3.16 µM, first compound 0.316 µM
[28] = second compound 3.16 µM, first compound 1 µM
[29] = second compound 3.16 µM, first compound 3.16 µM
[30] = second compound 3.16 µM, first compound 10 µM
[31] = second compound 10 µM, first compound 0.0316 µM
[32] = second compound 10 µM, first compound 0.1 µM
[33] = second compound 10 µM, first compound 0.316 µM
[34] = second compound 10 µM, first compound 1 µM
[35] = second compound 10 µM, first compound 3.16 µM
[36] = second compound 10 µM, first compound 10 µM
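Further: spheroids exposed to compounds for 7 days.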
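Wherever viability, T/C is given: 100% = DMSO vehicle-treated spheroids.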

SMILES: CC(C)n1c(=O)n(C)c2cnc3cc(F)c(-c4ccc(OCCCN5CCCCC5)nc4)cc3c21 + Nc1ccc(C#CCN(C(=O)Cc2ncc(C(F)(F)F)cc2C(F)(F)F)c2ccc(F)cc2)nn1
- IC50 (second compound 0.0316 µM): > 10 µM
- IC50 (second compound 0.1 µM): 7.8 µM
- IC50 (second compound 0.316 µM): 8.1 µM
- IC50 (second compound 1 µM): 6.5 µM
- IC50 (second compound 3.16 µM): 9.72 µM
- IC50 (second compound 10 µM): 7.91 µM
- viability, T/C [1]: 84.8%
- viability, T/C [2]: 92.4%
- viability, T/C [3]: 79.6%
- viability, T/C [4]: 95.8%
- viability, T/C [5]: 85.7%
- viability, T/C [6]: 60.4%
- viability, T/C [7]: 85.2%
- viability, T/C [8]: 77.2%
- viability, T/C [9]: 94.5%
- viability, T/C [10]: 88.9%
- viability, T/C [11]: 84.8%
- viability, T/C [12]: 40.4%
- viability, T/C [13]: 96.1%
- viability, T/C [14]: 95%
- viability, T/C [15]: 110%
- viability, T/C [16]: 83.1%
- viability, T/C [17]: 81.3%
- viability, T/C [18]: 43.3%
- viability, T/C [19]: 95%
- viability, T/C [20]: 89.1%
- viability, T/C [21]: 103%
- viability, T/C [22]: 87.7%
- viability, T/C [23]: 76%
- viability, T/C [24]: 34.7%
- viability, T/C [25]: 81.8%
- viability, T/C [26]: 86.2%
- viability, T/C [27]: 105%
- viability, T/C [28]: 94.5%
- viability, T/C [29]: 92.8%
- viability, T/C [30]: 48.9%
- viability, T/C [31]: 81.7%
- viability, T/C [32]: 96%
- viability, T/C [33]: 106%
- viability, T/C [34]: 76.3%
- viability, T/C [35]: 82.2%
- viability, T/C [36]: 42%

SMILES: COc1cc2cc(C(=O)CCC(=O)O)sc2cc1OC + Nc1ccc(C#CCN(C(=O)Cc2ncc(C(F)(F)F)cc2C(F)(F)F)c2ccc(F)cc2)nn1
- IC50 (second compound 0.0316 µM): > 10 µM
- IC50 (second compound 0.1 µM): > 10 µM
- IC50 (second compound 0.316 µM): > 10 µM
- IC50 (second compound 1 µM): > 10 µM
- IC50 (second compound 3.16 µM): > 10 µM
- IC50 (second compound 10 µM): > 10 µM
- viability, T/C [1]: 91.1%
- viability, T/C [2]: 98.4%
- viability, T/C [3]: 90.1%
- viability, T/C [4]: 110%
- viability, T/C [5]: 136%
- viability, T/C [6]: 99.3%
- viability, T/C [7]: 99.4%
- viability, T/C [8]: 97.4%
- viability, T/C [9]: 101%
- viability, T/C [10]: 86.8%
- viability, T/C [11]: 105%
- viability, T/C [12]: 105%
- viability, T/C [13]: 93.1%
- viability, T/C [14]: 101%
- viability, T/C [15]: 114%
- viability, T/C [16]: 110%
- viability, T/C [17]: 108%
- viability, T/C [18]: 110%
- viability, T/C [19]: 96.1%
- viability, T/C [20]: 97%
- viability, T/C [21]: 104%
- viability, T/C [22]: 95.9%
- viability, T/C [23]: 103%
- viability, T/C [24]: 112%
- viability, T/C [25]: 102%
- viability, T/C [26]: 107%
- viability, T/C [27]: 99.7%
- viability, T/C [28]: 112%
- viability, T/C [29]: 117%
- viability, T/C [30]: 108%
- viability, T/C [31]: 99.8%
- viability, T/C [32]: 109%
- viability, T/C [33]: 98.1%
- viability, T/C [34]: 95.3%
- viability, T/C [35]: 93%
- viability, T/C [36]: 91.7%

SMILES: COc1ccc([C@@H](O)c2cc(-c3ncnc4cc(N5CCOCC5)ccc34)c(F)cc2Cl)nn1 + Nc1ccc(C#CCN(C(=O)Cc2ncc(C(F)(F)F)cc2C(F)(F)F)c2ccc(F)cc2)nn1
- IC50 (second compound 0.0316 µM): 1.19 µM
- IC50 (second compound 0.1 µM): 0.701 µM
- IC50 (second compound 0.316 µM): 1.19 µM
- IC50 (second compound 1 µM): 0.925 µM
- IC50 (second compound 3.16 µM): 1.12 µM
- IC50 (second compound 10 µM): 0.46 µM
- viability, T/C [1]: 109%
- viability, T/C [2]: 85.4%
- viability, T/C [3]: 85%
- viability, T/C [4]: 52%
- viability, T/C [5]: 28.9%
- viability, T/C [6]: 17.7%
- viability, T/C [7]: 121%
- viability, T/C [8]: 89.8%
- viability, T/C [9]: 63.5%
- viability, T/C [10]: 42.4%
- viability, T/C [11]: 33.9%
- viability, T/C [12]: 23.3%
- viability, T/C [13]: 96.8%
- viability, T/C [14]: 83.2%
- viability, T/C [15]: 77.9%
- viability, T/C [16]: 55.3%
- viability, T/C [17]: 27.9%
- viability, T/C [18]: 20.7%
- viability, T/C [19]: 98.3%
- viability, T/C [20]: 86.8%
- viability, T/C [21]: 71.8%
- viability, T/C [22]: 46.5%
- viability, T/C [23]: 32.1%
- viability, T/C [24]: 19.1%
- viability, T/C [25]: 103%
- viability, T/C [26]: 86%
- viability, T/C [27]: 65%
- viability, T/C [28]: 55.2%
- viability, T/C [29]: 34.2%
- viability, T/C [30]: 20.9%
- viability, T/C [31]: 106%
- viability, T/C [32]: 74.3%
- viability, T/C [33]: 56.5%
- viability, T/C [34]: 39.1%
- viability, T/C [35]: 28.5%
- viability, T/C [36]: 16%
